In BindingDB's records for doi:10.1021/cc020096o (University of Anterwerp, 2003):

Columns and labels:
Dipeptidyl peptidase 2 = Dipeptidyl peptidase 2 (Homo sapiens, UniProt Q9UHL4); test: DPP IV Assay; conditions: pH 5.5
Dipeptidyl peptidase 4 = Dipeptidyl peptidase 4 (Homo sapiens, UniProt P27487); test: DPP IV Assay; conditions: pH 8.3
Procedure: Inhibitory concentration of the compound against Dipeptidyl peptidase IV (DPP IV) in Homo sapiens (human)is measured

Chain of Dipeptidyl peptidase 4 (P27487 whole entry): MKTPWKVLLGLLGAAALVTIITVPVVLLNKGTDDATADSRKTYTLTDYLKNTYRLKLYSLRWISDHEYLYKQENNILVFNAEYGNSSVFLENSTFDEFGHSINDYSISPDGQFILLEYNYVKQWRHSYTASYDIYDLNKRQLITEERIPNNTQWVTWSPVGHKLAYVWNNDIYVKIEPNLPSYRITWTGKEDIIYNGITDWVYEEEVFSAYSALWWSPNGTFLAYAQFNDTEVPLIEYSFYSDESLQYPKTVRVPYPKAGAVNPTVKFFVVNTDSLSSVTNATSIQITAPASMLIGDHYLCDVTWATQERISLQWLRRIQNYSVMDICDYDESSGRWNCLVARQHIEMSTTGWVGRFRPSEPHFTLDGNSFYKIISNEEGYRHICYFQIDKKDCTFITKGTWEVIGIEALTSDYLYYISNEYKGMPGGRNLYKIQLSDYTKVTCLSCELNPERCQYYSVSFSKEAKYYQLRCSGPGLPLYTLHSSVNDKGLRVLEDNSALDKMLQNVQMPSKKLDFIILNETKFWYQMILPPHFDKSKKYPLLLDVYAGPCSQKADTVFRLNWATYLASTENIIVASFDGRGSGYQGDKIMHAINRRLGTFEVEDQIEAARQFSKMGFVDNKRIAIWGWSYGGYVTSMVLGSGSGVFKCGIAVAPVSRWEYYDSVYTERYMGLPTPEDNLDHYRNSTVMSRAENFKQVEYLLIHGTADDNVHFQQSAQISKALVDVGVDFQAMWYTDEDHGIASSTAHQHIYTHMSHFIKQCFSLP

Compound | IC50 (Dipeptidyl peptidase 2) [µM] | IC50 (Dipeptidyl peptidase 4) [µM]
O=C(CNC1CCCC1)NC(c1ccccc1)P(=O)(Oc1ccccc1)Oc1ccccc1 (centres undefined) | 3.8 | > 125
C[C@H](N)C(=O)N1CCCC1P(=O)(Oc1ccccc1)Oc1ccccc1 (some centres undefined) | > 1000 | > 1000
NC(=O)C[C@H](N)C(=O)N1CCCC1P(=O)(Oc1ccccc1)Oc1ccccc1 (some centres undefined) | > 125 | 
N[C@@H](CC(=O)O)C(=O)N1CCCC1P(=O)(Oc1ccccc1)Oc1ccccc1 (some centres undefined) |  | > 1000
N[C@@H](Cc1cnc[nH]1)C(=O)N1CCCC1P(=O)(Oc1ccccc1)Oc1ccccc1 (some centres undefined) |  | 326
NCCCC[C@H](N)C(=O)N1CCCC1P(=O)(Oc1ccccc1)Oc1ccccc1 (some centres undefined) | > 1000 | 117
N[C@@H](Cc1ccccc1)C(=O)N1CCCC1P(=O)(Oc1ccccc1)Oc1ccccc1 (some centres undefined) | > 1000 | 142
CC(NC(=O)CN)P(=O)(Oc1ccccc1)Oc1ccccc1 (centres undefined) [2-amino-N-(1-diphenoxyphosphorylethyl)acetamide] | > 1000 | > 500
NCC[C@H](N)C(=O)NC(C1CCCCC1)P(=O)(Oc1ccccc1)Oc1ccccc1 (stereo partly drawn) [(2S)-2,4-diamino-N-[cyclohexyl(diphenoxyphosphoryl)methyl]butanamide] | 21 | 1000
CCCC(NC(=O)[C@@H](N)CCCCN)P(=O)(Oc1ccccc1)Oc1ccccc1 (stereo partly drawn) [(2S)-2,6-diamino-N-(1-diphenoxyphosphorylbutyl)hexanamide] | > 1000 | > 1000
CC(NC(=O)[C@@H](N)CCCCN)P(=O)(Oc1ccccc1)Oc1ccccc1 (stereo partly drawn) [(2S)-2,6-diamino-N-(1-diphenoxyphosphorylethyl)hexanamide] | > 1000 | > 500
N[C@@H](CO)C(=O)N1CCCC1P(=O)(Oc1ccccc1)Oc1ccccc1 (stereo partly drawn) [(2S)-2-amino-1-(2-diphenoxyphosphorylpyrrolidin-1-yl)-3-hydroxy-propan-1-one] | > 1000 | 503
CCCC(NC(=O)[C@@H](N)CC1CCCCC1)P(=O)(Oc1ccccc1)Oc1ccccc1 (stereo partly drawn) [(2S)-2-amino-3-cyclohexyl-N-(1-diphenoxyphosphorylbutyl)propanamide] | 500 | > 250
CC(NC(=O)[C@@H](N)CC1CCCCC1)P(=O)(Oc1ccccc1)Oc1ccccc1 (stereo partly drawn) [(2S)-2-amino-3-cyclohexyl-N-(1-diphenoxyphosphorylethyl)propanamide] | 47 | > 500
CCC(NC(=O)[C@@H](N)CC1CCCCC1)P(=O)(Oc1ccccc1)Oc1ccccc1 (stereo partly drawn) [(2S)-2-amino-3-cyclohexyl-N-(1-diphenoxyphosphorylpropyl)propanamide] | 62 | > 1000
N[C@@H](CC1CCCCC1)C(=O)NC(C1CCCCC1)P(=O)(Oc1ccccc1)Oc1ccccc1 (stereo partly drawn) [(2S)-2-amino-3-cyclohexyl-N-[cyclohexyl(diphenoxyphosphoryl)methyl]propanamide] | 30 | > 250
CCC(CC)C(NC(=O)[C@@H](N)C(C)CC)P(=O)(Oc1ccccc1)Oc1ccccc1 (stereo partly drawn) [(2S)-2-amino-N-(1-diphenoxyphosphoryl-2-ethyl-butyl)-3-methyl-pentanamide] | > 1000 | > 1000
CCC(C)C(NC(=O)[C@@H](N)C(C)CC)P(=O)(Oc1ccccc1)Oc1ccccc1 (stereo partly drawn) [(2S)-2-amino-N-(1-diphenoxyphosphoryl-2-methyl-butyl)-3-methyl-pentanamide] | 414 | > 1000
CCC(C)[C@H](N)C(=O)NC(C(C)C)P(=O)(Oc1ccccc1)Oc1ccccc1 (stereo partly drawn) [(2S)-2-amino-N-(1-diphenoxyphosphoryl-2-methyl-propyl)-3-methyl-pentanamide] | 1000 | > 1000

Compound | IC50 (Dipeptidyl peptidase 2) [µM] | IC50 (Dipeptidyl peptidase 4) [µM]
CCC(C)[C@H](N)C(=O)NC(CC(C)C)P(=O)(Oc1ccccc1)Oc1ccccc1 (stereo partly drawn) [(2S)-2-amino-N-(1-diphenoxyphosphoryl-3-methyl-butyl)-3-methyl-pentanamide] | 286 | > 1000
CCCC(NC(=O)[C@@H](N)C(C)CC)P(=O)(Oc1ccccc1)Oc1ccccc1 (stereo partly drawn) [(2S)-2-amino-N-(1-diphenoxyphosphorylbutyl)-3-methyl-pentanamide] | 1000 | > 1000
CC(NC(=O)[C@@H](N)Cc1cnc[nH]1)P(=O)(Oc1ccccc1)Oc1ccccc1 (stereo partly drawn) [(2S)-2-amino-N-(1-diphenoxyphosphorylethyl)-3-(1H-imidazol-4-yl)propanamide] | > 500 | > 500
CC(NC(=O)[C@@H](N)Cc1ccc(O)cc1)P(=O)(Oc1ccccc1)Oc1ccccc1 (stereo partly drawn) [(2S)-2-amino-N-(1-diphenoxyphosphorylethyl)-3-(4-hydroxyphenyl)propanamide] | > 500 | > 500
CC(NC(=O)[C@@H](N)CO)P(=O)(Oc1ccccc1)Oc1ccccc1 (stereo partly drawn) [(2S)-2-amino-N-(1-diphenoxyphosphorylethyl)-3-hydroxy-propanamide] | > 1000 | > 500
CC(C)[C@H](N)C(=O)NC(C)P(=O)(Oc1ccccc1)Oc1ccccc1 (stereo partly drawn) [(2S)-2-amino-N-(1-diphenoxyphosphorylethyl)-3-methyl-butanamide] | < 1000 | > 500
CCC(C)[C@H](N)C(=O)NC(C)P(=O)(Oc1ccccc1)Oc1ccccc1 (stereo partly drawn) [(2S)-2-amino-N-(1-diphenoxyphosphorylethyl)-3-methyl-pentanamide] | 116 | > 500
CC(NC(=O)[C@@H](N)Cc1ccccc1)P(=O)(Oc1ccccc1)Oc1ccccc1 (stereo partly drawn) [(2S)-2-amino-N-(1-diphenoxyphosphorylethyl)-3-phenyl-propanamide] | < 1000 | > 500
CC(C)C[C@H](N)C(=O)NC(C)P(=O)(Oc1ccccc1)Oc1ccccc1 (stereo partly drawn) [(2S)-2-amino-N-(1-diphenoxyphosphorylethyl)-4-methyl-pentanamide] | > 500 | > 1000
CC(NC(=O)[C@@H](N)CC(N)=O)P(=O)(Oc1ccccc1)Oc1ccccc1 (stereo partly drawn) [(2S)-2-amino-N-(1-diphenoxyphosphorylethyl)butanediamide] | 286 | 
CC(NC(=O)[C@H](C)N)P(=O)(Oc1ccccc1)Oc1ccccc1 (stereo partly drawn) [(2S)-2-amino-N-(1-diphenoxyphosphorylethyl)propanamide] | < 1000 | 
CCC(C)[C@H](N)C(=O)NC(CC)P(=O)(Oc1ccccc1)Oc1ccccc1 (stereo partly drawn) [(2S)-2-amino-N-(1-diphenoxyphosphorylpropyl)-3-methyl-pentanamide] | 1000 | > 1000
CCC(C)[C@H](N)C(=O)NC(c1cccc(C#N)c1)P(=O)(Oc1ccccc1)Oc1ccccc1 (stereo partly drawn) [(2S)-2-amino-N-[(3-cyanophenyl)-diphenoxyphosphoryl-methyl]-3-methyl-pentanamide] | 509 | > 125
CCC(C)[C@H](N)C(=O)NC(c1ccc(C#N)cc1)P(=O)(Oc1ccccc1)Oc1ccccc1 (stereo partly drawn) [(2S)-2-amino-N-[(4-cyanophenyl)-diphenoxyphosphoryl-methyl]-3-methyl-pentanamide] | 150 | > 250
N[C@@H](Cc1cnc[nH]1)C(=O)NC(C1CCCCC1)P(=O)(Oc1ccccc1)Oc1ccccc1 (stereo partly drawn) [(2S)-2-amino-N-[cyclohexyl(diphenoxyphosphoryl)methyl]-3-(1H-imidazol-4-yl)propanamide] | 241 | > 1000
CCC(C)[C@H](N)C(=O)NC(C1CCCCC1)P(=O)(Oc1ccccc1)Oc1ccccc1 (stereo partly drawn) [(2S)-2-amino-N-[cyclohexyl(diphenoxyphosphoryl)methyl]-3-methyl-pentanamide] | 148 | > 1000
CCC(C)[C@H](N)C(=O)NC(c1ccccc1)P(=O)(Oc1ccccc1)Oc1ccccc1 (stereo partly drawn) [(2S)-2-amino-N-[diphenoxyphosphoryl(phenyl)methyl]-3-methyl-pentanamide] | 18 | > 250
O=C(CNC1CCCC1)NC(C1CCCCC1)P(=O)(Oc1ccccc1)Oc1ccccc1 (centres undefined) [N-[cyclohexyl(diphenoxyphosphoryl)methyl]-2-(cyclopentylamino)acetamide] | 8 | > 125
